Experimental data: article PMC9301657 (Journal of biochemical and molecular toxicology, 2010)
Counter-ions that a name gives are not always drawn.

Key:
[1] = target: T1, r-SgAChE1 (Schizaphis graminum acetylcholinesterase-1) (Schizaphis graminum, UniProt Q9BMJ1); assay: Inhibitory kinetic constants; type: biochemical; conditions: for k2 (unimolecular rate constant) / ki / ki (bimolecular reaction constant, k2/Kd) / ki (bimolecular reaction constant): ATC substrate, room temperature
[2] = target: T1, r-SgAChE1 (Schizaphis graminum acetylcholinesterase-1); assay: Determination of IC50 for inhibition of purified r-SgAChE1; type: biochemical; conditions: room temperature
[3] = target: T1, r-SgAChE1 (Schizaphis graminum acetylcholinesterase-1); assay: Kinetics of substrate hydrolysis; type: biochemical; conditions: for KM of r-SgAChE1 relative to SgAChE purified from the greenbug / Vmax of r-SgAChE1 relative to SgAChE purified from the greenbug: comparison with ref 13; for Km: read-out: KM (Michaelis constant); for Km / Vmax (maximum velocity) / Vmax: room temperature; for Km / Vmax: pH 7.0; for kcat × 10^−3 (turnover rate): values × 10^−3, calculated from molecular mass 64,597 Da and Vmax
[4] = target: T1, r-SgAChE1 (Schizaphis graminum acetylcholinesterase-1); type: biochemical
[5] = system: SgAChE purified from the greenbug; conditions: read-out: IC50 against SgAChE; native SgAChE; cited from earlier work
[6] = system: SgAChE purified from the greenbug; conditions: read-out: KM toward SgAChE; native SgAChE; cited from earlier work

T1 sequence (Q9BMJ1 98-659): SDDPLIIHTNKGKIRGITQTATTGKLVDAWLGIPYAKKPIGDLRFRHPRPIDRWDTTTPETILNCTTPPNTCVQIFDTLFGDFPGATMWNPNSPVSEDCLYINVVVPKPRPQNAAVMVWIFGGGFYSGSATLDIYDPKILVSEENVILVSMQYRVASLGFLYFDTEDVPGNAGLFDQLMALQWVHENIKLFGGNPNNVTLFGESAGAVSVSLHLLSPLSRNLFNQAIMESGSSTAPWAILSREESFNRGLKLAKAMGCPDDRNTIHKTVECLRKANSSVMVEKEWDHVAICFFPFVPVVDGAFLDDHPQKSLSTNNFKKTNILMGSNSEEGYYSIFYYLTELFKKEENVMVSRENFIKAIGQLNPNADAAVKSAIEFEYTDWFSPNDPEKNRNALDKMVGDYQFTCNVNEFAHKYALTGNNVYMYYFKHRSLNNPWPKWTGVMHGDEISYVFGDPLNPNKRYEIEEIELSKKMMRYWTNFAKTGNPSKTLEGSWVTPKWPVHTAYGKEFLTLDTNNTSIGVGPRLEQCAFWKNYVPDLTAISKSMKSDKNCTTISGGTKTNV

Structure (SMILES) | k2 (unimolecular rate constant) [1] [min⁻¹] | ki [1] [M⁻¹ s⁻¹] | KM of r-SgAChE1 relative to SgAChE purified from the greenbug [3] [fold] | Vmax of r-SgAChE1 relative to SgAChE purified from the greenbug [3] [fold] | Km [3] [µM] | Vmax (maximum velocity) [3] [U/mg] | Vmax [3] [U/mg Protein] | further results
CCOP(=O)(OCC)Oc1ccc([N+](=O)[O-])cc1 [Paraoxon] | 2.76 ± 0.25 | 15100 ± 383 |  |  |  |  |  | ki (bimolecular reaction constant, k2/Kd) [1]: 9.06 ± 0.23 ×10^−5 M^−1 min^−1; k2 (unimolecular rate constant) ([1]; listed as paraoxon): 2.76 min⁻¹
CCN(CC)C(C)CN1c2ccccc2Sc2ccccc21 (stereo not drawn) [Ethopropazine, ethopropazine hydrochloride] |  |  |  |  |  |  |  | IC50 ([2]; IC50, 5 min incubation): 102000 nM
CC(=O)SC(C)C[N+](C)(C)C.[I-] (stereo not drawn) [AβMTC, acetyl(β-methyl)thiocholine iodide] |  |  | 1.88 | 1.6 | 114 ± 12.5 | 106.4 ± 3.0 | 106.4 ± 3.0 | kcat × 10^−3 (turnover rate) [3]: 6.88 ± 0.20 min^−1
CCOC(=O)CC(SP(=O)(OC)OC)C(=O)OCC (stereo not drawn) [Malaoxon, malaoxon] | 1.59 ± 0.02 | 7830 ± 217 |  |  |  |  |  | Kd [1]: 3400 ± 100 nM; k2 (unimolecular rate constant) ([1]; listed as malaoxon): 1.59 min⁻¹; IC50 ([2]; IC50, 5 min incubation): 61 nM
CC(=O)SCC[N+](C)(C)C.[I-] [ATC, Acetylthiocholine iodide] |  |  | 1.53 | 1.7 | 88.3 ± 9.6 | 133.2 ± 1.6 | 133.2 ± 1.6 | kcat × 10^−3 (turnover rate) [3]: 8.60 ± 0.11 min^−1; ATC concentration above which enzymatic activity is inhibited ([4]; substrate inhibition): above 10 mM
C=CC[N+](C)(C)c1ccc(CCC(=O)CCc2ccc([N+](C)(C)CC=C)cc2)cc1 [BW284C51, 1,5-bis(4-allyldimethylammoniumphenyl)-pentan-3-one dibromide] |  |  |  |  |  |  |  | IC50 ([2]; 5 min incubation): 1660 ± 2 nM; IC50 [5]: 140 nM
CNC(=O)Oc1cccc2ccccc12 [Carbaryl, carbaryl] | 0.99 ± 0.01 | 1080 ± 67 |  |  |  |  |  | Kd [1]: 15600 ± 2900 nM; IC50 ([2]; IC50, 5 min incubation): 940 ± 5 nM
CNC(=O)Oc1ccc2c(c1)[C@]1(C)CCN(C)[C@@H]1N2C.CNC(=O)Oc1ccc2c(c1)[C@]1(C)CCN(C)[C@@H]1N2C.O=S(=O)(O)O [Eserine, eserine hemisulfate] | 1.58 ± 0.04 | 1670 ± 267 |  |  |  |  |  | ki (bimolecular reaction constant) [1]: 1.00 ± 0.16 × 10^5 M^−1 min^−1; ki (bimolecular reaction constant, k2/Kd) [1]: 1.00 ± 0.16 ×10^−5 M^−1 min^−1; ki (bimolecular reaction constant) ([1]; listed as eserine): (1.00 ± 0.16) × 10^5 M^−1 min^−1; IC50 ([2]; 5 min incubation): 199 ± 4 nM; IC50 ([2]; 5 min incubation, listed as eserine): 200 nM; IC50 [5]: 480 nM
C[N+](C)(C)CCO [choline, choline chloride] |  |  |  |  |  |  |  | choline concentration above which the enzyme is inhibited [4]: higher than 20 mM
CCC(=O)SCC[N+](C)(C)C.[I-] [PTC, propionylthio-choline iodide] |  |  | 2.20 | 2.0 | 68.9 ± 7.8 | 76.7 ± 1.0 | 76.7 ± 1.0 | kcat × 10^−3 (turnover rate) [3]: 4.95 ± 0.07 min^−1; Km [6]: 31.3 ± 3.7 µM
CC(=O)O [acetate] |  |  |  |  |  |  |  | influence on hydrolytic activity ([4]; range from 1 μM to 100 mM): not much influenced
CCCC(=O)SCC[N+](C)(C)C.[I-] [BTC, S-butyrylthiocholine iodide] |  |  | 6.02 | 1.9 | 201 ± 21 | 4.4 ± 0.1 | 4.4 ± 0.1 | 
